Assay results from patent US20250368633A1, “AZEPINE FUSED RING COMPOUND AS RIPK1 INHIBITOR AND USE THEREOF” (ARTIVILA BIOPHARMA, priority 2022, published 2025).

Tests used:
U937 cells [1] = assay: EC50 of necroptosis inhibition in U937 cells (TSZ-induced, CellTiter-Glo); format: cell-based; conditions: Homo sapiens, U-937; TSZ (hTNF-α, SM-164, Z-VAD-FMK) 20 hours; 10 concentration points; read-out: EC50 intervals of necroptosis inhibition in U937 cells
Outline: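 U937 cells pretreated 15 min with compound (10-point, 1:3 series), then necroptosis induced by TSZ (hTNF-α, SM-164, Z-VAD-FMK) for 20 h at 37 °C. Viability measured as ATP by CellTiter-Glo luminescence; inhibition normalised to untreated and TSZ-only wells, EC50 from four-parameter fit.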

U937 cells [2] = assay: Inhibition rate of compound (1 μM) on necroptosis of U937 cells (TSZ-induced, CellTiter-Glo); format: cell-based; conditions: TSZ (hTNF-α, SM-164, Z-VAD-FMK) 20 hours
Outline: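 U937 cells were pretreated 15 min with compound, then necroptosis was triggered with TSZ (Z-VAD-FMK, hTNF-α, SM-164) for 20 h at 37° C. Viability was read as ATP by CellTiter-Glo luminescence, and inhibition (%) was taken relative to no-TSZ and TSZ-only wells.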

RIPK1 kinase = target: T1, RIPK1 kinase (Homo sapiens, UniProt Q13546); assay: In vitro RIPK1 kinase activity assay (ADP-Glo), inhibition by compounds at 1 μM; format: biochemical; conditions: compound 1 μM; ATP 10 μM; MBP substrate 100 μg/mL; read-out: RIPK1 kinase activity inhibition rate range
T1 construct: purchased Promega VA7593
T1 sequence (Q13546 1-671): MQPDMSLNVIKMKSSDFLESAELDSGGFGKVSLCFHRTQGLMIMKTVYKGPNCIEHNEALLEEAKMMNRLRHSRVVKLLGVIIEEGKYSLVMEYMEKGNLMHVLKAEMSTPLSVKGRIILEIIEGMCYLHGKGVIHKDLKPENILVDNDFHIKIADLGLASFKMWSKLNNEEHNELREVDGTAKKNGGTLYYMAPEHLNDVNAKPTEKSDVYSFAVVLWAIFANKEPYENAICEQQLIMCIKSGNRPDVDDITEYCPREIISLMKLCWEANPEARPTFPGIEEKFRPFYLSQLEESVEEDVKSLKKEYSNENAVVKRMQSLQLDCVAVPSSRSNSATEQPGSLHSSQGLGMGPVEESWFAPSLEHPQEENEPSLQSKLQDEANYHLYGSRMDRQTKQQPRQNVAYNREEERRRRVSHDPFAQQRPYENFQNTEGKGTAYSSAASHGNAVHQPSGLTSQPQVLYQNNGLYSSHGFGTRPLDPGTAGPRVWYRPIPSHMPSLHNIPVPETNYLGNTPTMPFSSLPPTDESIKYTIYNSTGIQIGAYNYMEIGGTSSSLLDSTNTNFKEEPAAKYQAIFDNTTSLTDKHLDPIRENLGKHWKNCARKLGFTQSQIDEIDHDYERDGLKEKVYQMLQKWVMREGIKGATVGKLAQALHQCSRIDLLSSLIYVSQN
Outline: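 Compound and RIPK1 were preincubated 15 min at room temperature, then reacted 1 h with 10 μM ATP and 100 μg/mL MBP substrate in kinase buffer D. ADP formed was measured by ADP-Glo luminescence and converted to percent inhibition of kinase activity.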

| inhibition at 1 µM (RIPK1 kinase) | Structure (SMILES) | EC50 (U937 cells [1]) | Inhibition rate range of compounds (1 μM) on U937 cell necroptosis (U937 cells [2]) |
| --- | --- | --- | --- |
| 50 to 74% | CN1C(=O)[C@@H](NC(=O)C(=O)NCCc2ccccc2)COc2ccc(C#CCN3CCNCC3)cc21 [Example 49, (S)—N^1-(5-methyl-4-oxo-7-(3-(piperazin-1-yl)prop-1-yn-1-yl)-2,3,4,5-tetrahydrobenzo[b][1,4]oxazepin-3-yl)-N^2-phenethyloxalamide] | 100 to 500 nM | A (A: ≥90%) |
| 25 to 49% | CN1C(=O)[C@@H](NC(=O)C(=O)NCCc2ccccc2)COc2ccc(C#CC3CCN(CCOCCOCC(=O)OC(C)(C)C)CC3)cc21 [Example 53, tert-butyl (S)-2-(2-(2-(4-((5-methyl-4-oxo-3-(2-oxo-2-(phenethylamino)acetamido)-2,3,4,5-tetrahydrobenzo[b][1,4]oxazepin-7-yl)ethynyl)piperidin-1-yl)ethoxy)ethoxy)acetate] | < 100 nM | A (A: ≥90%) |
| 50 to 74% | CN1C(=O)[C@@H](NC(=O)C(=O)NCCc2ccccc2)COc2ccc(C#CC3CCN(CCOCCOCC(=O)O)CC3)cc21 [Example 54, (S)-1-(2-(2-(carboxymethoxy)ethoxy)ethyl)-4-((5-methyl-4-oxo-3-(2-oxo-2-(phenethylamino)acetamido)-2,3,4,5-tetrahydrobenzo[b][1,4]oxazepin-7-yl)ethynyl)piperidin-1-ium 2,2,2-trifluoroacetate] | 500 to 2000 nM | B (B: 50-89%) |
| 50 to 74% | Cc1ncsc1-c1ccc(CNC(=O)[C@@H]2C[C@@H](O)CN2C(=O)[C@@H](NC(=O)COCCOCCN2CCC(C#Cc3ccc4c(c3)N(C)C(=O)[C@@H](NC(=O)C(=O)NCCc3ccccc3)CO4)CC2)C(C)(C)C)cc1 [Example 55, N^1-((S)-7-((1-(2-(2-(2-(((S)-1-((2S,4R)-4-hydroxy-2-((4-(4-methylthiazol-5-yl)benzyl)carbamoyl)pyrrolidin-1-yl)-3,3-dimethyl-1-oxobutan-2-yl)amino)-2-oxoethoxy)ethoxy)ethyl)piperidin-4-yl)ethynyl)-5-methyl-4-oxo-2,3,4,5-tetrahydrobenzo[b][1,4]oxazepin-3-yl)-N^2-phenethyloxalamide] | < 100 nM | A (A: ≥90%) |
| 25 to 49% | CN1C(=O)[C@@H](NC(=O)C(=O)NCCc2ccccc2)COc2ccc(C#CC3CCN(CCOCCOCC(=O)Nc4cccc5c4CN(C4CCC(=O)NC4=O)C5=O)CC3)cc21 (stereo partly drawn) [Example 56, N^1-((3S)-7-((1-(2-(2-(2-(2-(2,6-dioxopiperidin-3-yl)-(1-oxoisoindolin-4-yl)amino)-2-oxoethoxy)ethoxy)ethyl)piperidin-4-yl)ethynyl)-5-methyl-4-oxo-2,3,4,5-tetrahydrobenzo[b][1,4]oxazepin-3-yl)-N^2-phenethyloxalamide] | < 100 nM | A (A: ≥90%) |
| ≥ 75% | CN1C(=O)[C@@H](NC(=O)C(=O)NCCc2ccccc2)COc2ccccc21 [Example 57, (S)—N^1-(5-methyl-4-oxo-2,3,4,5-tetrahydrobenzo[b][1,4]oxazepin-3-yl)-N^2-phenethyloxalamide] | 100 to 500 nM | A (A: ≥90%) |
| 25 to 49% | CN1C(=O)[C@@H](NC(=O)C(=O)NCc2ccccc2)COc2ccccc21 [Example 58, (S)—N^1-benzyl-N^2-(5-methyl-4-oxo-2,3,4,5-tetrahydrobenzo[b][1,4]oxazepin-3-yl)oxalamide] | 500 to 2000 nM | B (B: 50-89%) |
| 25 to 49% | CN1C(=O)C(NC(=O)C(=O)NCCc2ccccc2)CCc2cc(Br)ccc21 (stereo not drawn) [Example 63, N^1-(7-bromo-1-methyl-2-oxo-2,3,4,5-tetrahydro-1H-benzo[b]azepin-3-yl)-N^2-phenethyloxalamide] | 100 to 500 nM | A (A: ≥90%) |
| ≥ 75% | CN1C(=O)C(NC(=O)C(=O)NCc2ccccc2)CCc2ccccc21 (stereo not drawn) [Example 68, N^1-benzyl-N^2-(1-methyl-2-oxo-2,3,4,5-tetrahydro-1H-benzo[b]azepin-3-yl)oxalamide] | 500 to 2000 nM | B (B: 50-89%) |
| ≥ 75% | CN1C(=O)C(NC(=O)C(=O)NCCc2ccccc2)CCc2cccnc21 (stereo not drawn) [Example 69, N^1-(9-methyl-8-oxo-6,7,8,9-tetrahydro-5H-pyrido[2,3-b]azepin-7-yl)-N^2-phenethyloxalamide] | 500 to 2000 nM | B (B: 50-89%) |
| 50 to 74% | CN1C(=O)[C@H](NC(=O)C(=O)NCCc2ccccc2)COc2ccc(Br)cc21 [Example 71, (R)—N^1-(7-bromo-5-methyl-4-oxo-2,3,4,5-tetrahydrobenzo[b][1,4]oxazepin-3-yl)-N^2-phenethyloxalamide] | 500 to 2000 nM | B (B: 50-89%) |
| ≥ 75% | CN1C(=O)[C@@H](NC(=O)C(=O)NCCc2ccccc2)COc2ccc(C#CCn3ccnc3)cc21 [Example 72, (S)—N^1-(7-(3-(1H-imidazol-1-yl)prop-1-yn-1-yl)-5-methyl-4-oxo-2,3,4,5-tetrahydrobenzo[b][1,4]oxazepin-3-yl)-N^2-phenethyloxalamide] | < 100 nM | A (A: ≥90%) |
| ≥ 75% | CN1CCC(C#Cc2ccc3c(c2)N(C)C(=O)[C@@H](NC(=O)C(=O)NCCc2ccccc2)CO3)CC1 [Example 73, (S)—N^1-(5-methyl-7-((1-methylpiperidin-4-yl)ethynyl)-4-oxo-2,3,4,5-tetrahydrobenzo[b][1,4]oxazepin-3-yl)-N^2-phenethyloxalamide] | < 100 nM | A (A: ≥90%) |
| 25 to 49% | CN(C)c1ccc(C#Cc2ccc3c(c2)N(C)C(=O)[C@@H](NC(=O)C(=O)NCCc2ccccc2)CO3)cc1 [Example 75, (S)—N^1-(7-((4-(dimethylamino)phenyl)ethynyl)-5-methyl-4-oxo-2,3,4,5-tetrahydrobenzo[b][1,4]oxazepin-3-yl)-N^2-phenethyloxalamide] | < 100 nM | A (A: ≥90%) |
| ≥ 75% | CN1C(=O)[C@@H](NC(=O)C(=O)NCCc2ccccc2)COc2ccc(C#CCN3CCN(CCO)CC3)cc21 [Example 83, (S)—N^1-(7-(3-(4-(2-hydroxyethyl)piperazin-1-yl)prop-1-yn-1-yl)-5-methyl-4-oxo-2,3,4,5-tetrahydrobenzo[b][1,4]oxazepin-3-yl)-N^2-phenethyloxalamide] | < 100 nM | A (A: ≥90%) |
| 25 to 49% | CN1C(=O)[C@@H](NC(=O)C(=O)NCCc2ccccc2)COc2ccc(C#CCN)cc21.Cl [Example 87, (S)—N^1-(7-(3-aminoprop-1-yn-1-yl)-5-methyl-4-oxo-2,3,4,5-tetrahydrobenzo[b][1,4]oxazepin-3-yl)-N^2-phenethyloxalamide hydrochloride] | 500 to 2000 nM | B (B: 50-89%) |
| ≥ 75% | CC(=O)N1CC(O)(C#Cc2ccc3c(c2)N(C)C(=O)[C@@H](NC(=O)C(=O)NCCc2ccccc2)CO3)C1 [Example 93, (S)—N^1-(7-((1-acetyl-3-hydroxyazetidin-3-yl)ethynyl)-5-methyl-4-oxo-2,3,4,5-tetrahydrobenzo[b][1,4]oxazepin-3-yl)-N^2-phenethyloxalamide] | 100 to 500 nM | A (A: ≥90%) |
| ≥ 75% | CN1C(=O)[C@@H](NC(=O)C(=O)NCCc2ccccc2)COc2ccc(C#CCCC(=O)O)cc21 [Example 95, (S)-5-(5-methyl-4-oxo-3-(2-oxo-2-(phenethylamino)acetamido)-2,3,4,5-tetrahydrobenzo[b][1,4]oxazepin-7-yl) pent-4-ynoic acid] | 500 to 2000 nM | B (B: 50-89%) |
